Reference: US12077503B2, “Substituted cyclic amides and their use as herbicides” (FMC CORPORATION, priority 2015, dated 2024)

Test system: morningglory (Ipomoea spp.)
Experiment: Test A postemergence
Format: in vivo
Settings: Ipomoea, post-emergence, 240 h, Postemergence; for pest or weed control at 125 g/ha: 125 g ai/ha, visual rating about 10 d after treatment, read-out: Morningglory plant response rating (0 to 100 scale); for pest or weed control at 500 g/ha: 500 g ai/ha, visual injury, 0 to 100 scale (0 no effect, 100 complete control), approx. 10 d, read-out: Plant response rating, Morningglory
In short: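 Preemergence soil spray on seeded pots or post-emergence spray on 1–2 leaf plants, in loam–sand blend. Greenhouse ~10 d. Visual rating 0–100 against untreated plants.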

Structure (SMILES): N#Cc1ccc(NC(=O)C2C(=O)NCC2c2ccccc2)cc1 (centres unmarked) [Compound 1355]
- pest or weed control at 125 g/ha: 0%
- pest or weed control at 500 g/ha: 0%

Structure (SMILES): O=C1NCC(c2ccccc2)C1C(=O)Nc1cccnc1 (centres unmarked) [Compound 1356]
- pest or weed control at 125 g/ha: 0%
- pest or weed control at 500 g/ha: 0%

Structure (SMILES): O=C1NCC(c2ccccc2)C1C(=O)Nc1ccccc1Oc1ccccc1 (centres unmarked) [Compound 1357]
- pest or weed control at 125 g/ha: 0%
- pest or weed control at 500 g/ha: 0%

Structure (SMILES): O=C1NCC(c2ccccc2)C1C(=O)Nc1ccccc1 (centres unmarked) [Compound 1358]
- pest or weed control at 125 g/ha: 0%
- pest or weed control at 500 g/ha: 0%
